Measured values: patent US4632922A, “Oxomorpholinyl dimer and rescue of anthracycline and mitomycin C damage” (The United States of America as represented by the …, priority 1985, dated 1986)

Assays:
[1] = Kinetics of reaction of DHM3 with daunorubicin in water solvent
Experimental: A test similar to that described for the same reaction in methanol solvent (vide supra) was run. Oxomorpholinyl dimer DHM3 (1.38 mg, 4.37×10^-3 mmol) was dissolved in 0.5 ml of oxygen-free methanol and quickly transferred without delay into one compartment of the cell. The solvent was promptly removed under vacuum. Daunorubicin hydrochloride ([…]) was dissolved in 100 ml of an aqueous solution of Tris (24.2 mg) and Tris hydrochloride (31.6 mg) and 2.6 ml of this solution (4.18×10^-4 mmol of 6) was introduced into the other compartment of the cell. The sample was freeze-thaw degassed over three cycles as described above, sealed, and placed in a thermostatted cell holder at 10.0±0.1° C. for about 20 min prior to mixing. Full spectra between 320 and 800 nm were recorded every 10 sec for the first 125 sec, and then every 20 sec. From the absorbance change at 620 nm over the first 85 sec (50% reaction of daunorubicin), a non-linear least-squares treatment gave a first order rate constant for bond homolysis of DHM3 (k1) equal to 6×10^-4 sec^-1 and a first order rate constant for destruction of 7 (k2) equal to 2×10^-2 sec^-1. Treatment of the data obtained in the 164-225 sec interval gave k2 =2.8×10^-2 sec^-1.
Thus, when a ten-fold excess of DHM3 is reacted with an oxygen-free 2×10^-4 M solution of 6 in buffered water (pH8) at 10° C., the absorbance of the solution at 618-620 nm, due to the tautomer 7, reaches its maximum after 125 sec and then decreases quickly, with an 80% decrease in 100 sec. Here again the formation and destruction of 7, as calculated from the data obtained in the first 85 sec of reaction, follows consecutive first order kinetics, first order in DHM3 and 7, with k1 =6×10^-4 sec^-1, k2 =2×10^-2 sec^-1 and ε7 =9600. Calculation of k2 from the absorbance data taken after 165 sec of reaction time, when only first order destruction of 7 is observed, gives a value of 2.8×10^-2 sec^-1.

[2] = tested on: DOX-induced skin ulceration; experiment: Rescue by DHM3 of DOX-induced skin necrosis (ulceration, induration) in swine; assay type: in vivo, miniature white swine
Experimental: (§1) In order to produce anthracycline induced tissue damage, clinical grade doxorubicin (DOX) hydrochloride was obtained as a representative anthracycline chemical from the Drug Synthesis Branch, Developmental Therapeutics Program, National Cancer Institute. Each vial contained 10 mg DOX hydrochloride and 50 mg lactose which was reconstituted with 5.0 ml sterile 0.9% NaCl solution to give a final drug concentration of 2.0 mg/ml. DHM3 solution was prepared by dissolving 10 mg in ice-cold water which had been purged with N2 gas for 5 minutes. Dissolution was facilitated by brief sonication to give a final concentration of 10 mg/ml. The solution was kept cold (≈4° C.) and protected from air and light.
(§2) Female weanling miniature white swine weighing approximately 12 kg were obtained from the Veterinary Resources Branch, National Institutes of Health. The development of this strain of swine has been described previously (Sachs, et al., Transplantation 22:559-567, 1976). Each animal was housed in a 6×4 ft metabolic cage and was fed standard NIH show chow, 1.5 lbs twice daily.
Each animal was anesthesized by intramuscular injections of ketamine, 20 mg/kg, xylazine, 20 mg/kg, and atropine, 1.0 mg. Following endotracheal intubation anesthesia was maintained with a mixture of nitrous oxide, halothane, and oxygen gas.
(§3) DOX HCl (2.0 mg/ml) was administered intradermally (i.d.) with a 25 gauge needle inserted approximately 4 to 5 mm into the skin. Following the injection of 0.5, 0.75 or 1.0 ml (1.0, 1.5, or 2.0 mg, respectively) DOX solution, the syringe was removed from the hub leaving the needle in place. After the indicated time interval, 1.0 ml (10 mg) DHM3 was injected through the same needle and the needle was then removed. Control sites received 1.0 ml sterile water instead of DHM3. The injection sites were along the mid-lateral aspect of each side of the swine and were 4-5 cm apart (6-8 injection sites per side). One animal was used for a dose experiment where DOX, 0.5 ml/site was injected along one side and 1.0 ml/site was injected along the contralateral side. Fifteen minutes later, DHM3 or water was injected into alternating sites as described above. A second animal received DOX, 0.75 ml/site along both sides. DHM3 or water was injected into alternating sites at times varying from 5 to 120 minutes following DOX administration.
All lesions were measured by a single observer with metric calipers three times weekly for two weeks, followed by weekly measurements thereafter. The areas of skin ulceration and induration were estimated by the product of the cross perpendicular diameters. The total toxicity of DOX-induced skin ulceration was determined by calculating the area under the ulceration-time curve (AUC) in mm^2 -days.
In order to assess the extent of tissue injury following intradermal DOX or DHM3, incisional biopsies were performed on representative lesions 6 and 20 days following drug injection. These samples were placed in 10% buffered formalin and processed for examination by standard light microscopy (Pathco Inc., Potomac, MD.).

swine skin = experiment: Intradermal DHM3 alone (control injections), tolerance and histology in swine; assay type: in vivo, miniature white swine
Experimental: as §1, §2
as §3, with “DHM3 or water was injected into alternating sites at times varying from 5 to 120 minutes following DOX administration.” left out

[3] = DHM3 10 mg 15 min after DOX 2.0 mg i.d.

**Q.** For `CC1(CO)COC(=O)C(C)(C2(C)NC(C)(CO)COC2=O)N1` (centres unmarked) [DHM3, bi(3,5-dimethyl-5-hydroxymethyl-2-oxomorpholin-3-yl)], which “reactivity with daunorubicin compared with TM-3” value ([1]; DHM3 in water vs TM-3 in methanol) is on record?
**A.** Its value is “approximately the same reactivity”.

**Q.** What about the “first order rate constant for bond homolysis of DHM3 (k1)” value ([1]; buffered water (pH8), 10.0±0.1° C., first 85 sec) of the same compound?
**A.** The value was 0.0006 s⁻¹.

**Q.** And the “extent of skin necrosis” value [2, 3]?
**A.** Its value is “greatly reduced”.

**Q.** And the “reduction of peak area size of the ulcer” value [2, 3]?
**A.** Its value is 80%.

**Q.** What about the “time to complete healing” value ([2]; DHM3 10 mg 15 min after DOX 2.0 mg, control 7 weeks) of the same compound?
**A.** Its value is ≤ 5 weeks.

**Q.** And the “AUC (total toxicity of skin ulceration)” value ([2]; DHM3 10 mg i.d. 5 min after DOX 1.5 mg i.d.)?
**A.** The value was 960 mm^2 . days.

**Q.** What about the “AUC (total toxicity of skin ulceration)” value ([2]; DHM3 10 mg i.d. 15 min after DOX 1.0 mg i.d., mean of 3 lesions, p < .005) of the same compound?
**A.** The value was 840 ± 420 mm^2 . days.

**Q.** What about the “AUC (total toxicity of skin ulceration)” value ([2]; DHM3 10 mg i.d. 15 min after DOX 1.5 mg i.d.) of the same compound?
**A.** The value was 2220 mm^2 . days.

**Q.** What about the “AUC (total toxicity of skin ulceration)” value ([2]; DHM3 10 mg i.d. 15 min after DOX 2.0 mg i.d., mean of 3 lesions, p < .001) of the same compound?
**A.** The value was 1020 ± 420 mm^2 . days.

**Q.** And the “AUC (total toxicity of skin ulceration)” value ([2]; DHM3 10 mg i.d. 30 min after DOX 1.5 mg i.d.)?
**A.** Its value is 3240 mm^2 . days.

**Q.** What about the “AUC (total toxicity of skin ulceration)” value ([2]; DHM3 10 mg i.d. 60 min after DOX 1.5 mg i.d.) of the same compound?
**A.** Its value is 4020 mm^2 . days.

**Q.** What about the “AUC (total toxicity of skin ulceration)” value ([2]; DHM3 10 mg i.d. 90 min after DOX 1.5 mg i.d.) of the same compound?
**A.** Its value is 5340 mm^2 . days.

**Q.** And the “AUC (total toxicity of skin ulceration)” value ([2]; DHM3 10 mg i.d. 120 min after DOX 1.5 mg i.d.)?
**A.** Its value is 8400 mm^2 . days.

**Q.** What about the “protection against DOX injury” value ([2]; DHM3 5 min after DOX) of the same compound?
**A.** The value was “Optimal protection”.

**Q.** What about the “reduction of the size of surrounding induration” value ([2]; DHM3 after DOX) of the same compound?
**A.** The value was “observed to parallel the ulcer measurements”.

**Q.** And the “color change of stained skin” value ([2]; DHM3 injected into DOX site)?
**A.** The value was “immediately changed to a rusty brown”.

**Q.** What about the “reduction of DOX induced injury” value ([2]; DOX 1.0 mg, compared with 2.0 mg) of the same compound?
**A.** The value was “similar”.

**Q.** What about the “protection against DOX injury” value ([2]; interval greater than 60 min) of the same compound?
**A.** The value was “no protection is observed”.

**Q.** And the “protection against DOX injury” value ([2]; interval increased to 60 min)?
**A.** The value was “Progressively less protection”.

**Q.** What about the “protection from skin necrosis (maximal ulcer area and time required for healing)” value ([2]; up to 60 min after i.d. DOX) of the same compound?
**A.** The value was “considerable protection”.

**Q.** And the “tissue injury (histology)” value (swine skin)?
**A.** Its value is “did not cause any tissue injury except for mild upper dermis congestion”.

**Q.** What about the “tolerance of control i.d. injections” value (swine skin) of the same compound?
**A.** The value was “well tolerated”.

**Q.** What about the ulcer formation (swine skin) of the same compound?
**A.** The ulcer formation was “no ulcer formation occurred”.
